# According to PMC8767159, “Multiparameter Optimization of Trypanocidal Cruzain Inhibitors With In Vivo Activity and Favorable Pharmacokinetics” (Frontiers in Pharmacology, 2022):
# Where two headings read alike, the source gives them in different places.
# Legend:
# rhodesain = rhodesain (Trypanosoma brucei rhodesiense, UniProt Q95PM0); assay: Rhodesain fluorescence-based inhibition assay (Z-FR-AMC); assay type: biochemical; conditions: Table S3; compound 100 µM
# Experimental: Rhodesain activity was measured using a fluorescence-based assay as previously described ([Fonseca et al., 2015]). The cleavage rates of the fluorogenic substrate Z-Phe-Arg-aminomethyl coumarin (Z-FR-AMC) were monitored at wavelengths of 340 nm for excitation and 440 nm for emission. All assays were performed in triplicate in a 0.1 M sodium acetate buffer, pH 5.5, with 1 mM beta-mercaptoethanol and 0.01% Triton X-100. The final concentration of rhodesain was 3 nM, and the substrate concentration was 2.5 μM. The cleavage of the substrate was followed by continuous reading for 5 min, and enzyme activity in the presence of 100 μM of each potential inhibitor was calculated based on initial velocity rates compared to DMSO controls. All compounds were tested in triplicate in three independent experiments.
# [1] = In vivo pharmacokinetics in male CD1 mice; set-up: species or system mouse; conditions: for CLpu: plasma clearance corrected for the fraction unbound; for clearance: plasma clearance, read-out: CLp (L/h/kg) IV (converted); for C0 / AUC / half-life / Vd / Cmax / Tmax / bioavailability: plasma; for bioavailability: oral bioavailability
# Experimental: The in vivo pharmacokinetic profiles of the compounds were determined using male CD1 mice weighing […] ([Davies and Morris, 1993]; [Liu and Jia, 2007]). The compounds were administered in a single dose orally (0.5 mg/kg) and intravenously (0.5 mg/kg). Stock solutions of the compounds in DMSO were diluted in Tween 80, PEG-400, and D5W (5% dextrose in water) at a ratio of 2:5:20:73 (v/v). The injection volume was 10 ml/kg. The remaining plasma concentration was monitored over time by LC-MS/MS by collecting blood samples (40 μl) at 10, 25, and 50 min and 1, 3, 6, 9, 12, and 24 h after administration of the compound.
# For the biotransformation experiments and analysis of metabolites in microsomes, an Ultra-High-Pressure Liquid Chromatography instrument (UHPLC, Thermo Accela, Waltham, MA) ([Spaggiari et al., 2014]) connected to an automatic sample injector and a 1250 series pump was used. The UHPLC system was connected to a Thermo Fisher (Waltham, MA) LTQ Orbitrap mass spectrometer. For all other analyses, an AB Sciex Triple Quad 5500 coupled to a UHPLC equipped with a UV 1290 diode detector (Agilent Technologies, Santa Clara, CA) and a CTC PAL self-collecting system (LEAP Technologies, Carrboro, NC) was used. Q1 MS positive ion mode (300–500 Da) was used to detect the ions of the parent compounds. The UV detector was operated in spectral mode (250–280 nm). A Hypersil Gold C18 (2.1 mm × 100 mm, 1.9 µm, Thermo Fisher) HPLC column was used. The mobile phases were solvent A (0.1% formic acid in water) and solvent B (0.1% formic acid in ACN). The flow was adjusted to 0.55 ml/min, and the injection volume was adjusted to […]. The gradient started with 1% solvent B for 0.4 min, reached 40% (solvent B) in 2.3 min and 95% (solvent B) in 0.67 min, was maintained for 0.5 min, and returned to the initial condition of 1%. This condition was maintained for 1 min before injection of the next sample. The peak area ratio (peak area of the test compounds/peak area of the control compounds) was converted to the percentage of remaining compound, with the 0 min time point ratio set to 100%. T½ and CLint were calculated from the percentage of remaining compound versus the incubation time. From the resulting function, the slope (k) was determined. The equations T1/2 (min) = ln(2)/k and CLint in vitro (μL/min/mg) = k*1000/0.25 were used to determine T½ and CLint.
# T. cruzi (Y strain) = assay: In vivo trypanocidal activity in mice infected with T. cruzi (Y strain); set-up: species or system Trypanosoma cruzi; conditions: for % reduction of peak parasitemia: vs vehicle
# Experimental: Thirty-day-old female Swiss mice weighing 20–25 g and procured from the Center for the Development of Experimental Models for Medicine and Biology (CEDEME/UNIFESP) served as the subjects for these experiments. Animals were housed (5–6 per cage) in polypropylene cages and kept under controlled temperature (22–23°C) and humidity on a 12-h light/dark cycle (12 h light, 12 h dark; lights on at 6:30 am). Rodent chow and water were available ad libitum throughout the experiments. The Committee of Ethics in Research of the Universidade Federal de São Paulo approved all the experiments (CEUA n° 5301080816).
# Treatment started on day five after infection with T. cruzi. The following parameters were evaluated in these experiments: level of parasitemia after the treatment, suppression of peak parasitemia (day seven after the infection), and reduction of parasitemia on the peak day (day seven after infection). Parasitemia was expressed as the number of T. cruzi trypomastigotes per 5 µl of blood and was calculated using the Brener method ([Brener, 1962]). […] On the seventh day of treatment, when parasitemia reached its peak, one-way ANOVA indicated a treatment effect (F3,16 = 7.47; p = 0.002). […] This dose-response effect is likely associated with the modulation of physiological systems that increase the susceptibility of the animals to infection with T. cruzi at high doses of the compound. […] The results of the in vivo studies indicate a moderate ability of 28 to suppress peak parasitemia at 150 mg/kg.
# [2] = Cytotoxicity MTS assay in HFF-1 fibroblasts; assay type: cell-based; conditions: human HFF-1 fibroblasts
# Experimental: The synthesized compounds were evaluated for their cytotoxicity against HFF-1 cells using the MTS assay (Promega, Madison, WI) ([Barltrop et al., 1991]) as previously described ([Ferreira et al., 2019]). HFF-1 fibroblasts were plated at 2 × 10^3/well in 96-well culture plates in RPMI 1640 without phenol red enriched with 10% FCS and incubated overnight at 37°C and 5% CO2. Next, 7 concentrations (0.1–100 µM) of the compounds were added in 3-fold serial dilutions, each concentration in triplicate, and the plates were incubated for 72 h at 37°C and 5% CO2. Next, 20 µl of MTS was added to each well, and the plates were incubated for an additional 4 h at 37°C and 5% CO2. The absorbance was measured at 490 nm using a spectrophotometer, and the data were transferred to SigmaPlot 10.0 (Systat Software Inc., Erkrath, Germany) to determine the IC50 values. Doxorubicin (Sigma–Aldrich) was used as a positive control, and untreated wells (100% growth) were used as negative controls in all plates. All compounds were tested in two independent assays.
# [3] = male, CD1, mouse, 0.5 mg/kg, Table S6, IV, mice
# [4] = male, CD1, mouse, 0.5 mg/kg, Table S6, IV, mice, read-out: AUC (ng*h/mL) IV
# [5] = male, CD1, mouse, 0.5 mg/kg, Table S6, IV, mice, read-out: T1/2(h) IV (converted)
# [6] = male, CD1, mouse, 0.5 mg/kg, Table S6, IV, mice, read-out: VSS (L/kg) IV
# [7] = male, CD1, mouse, 0.5 mg/kg, Table S6, PO, mice
# [8] = male, CD1, mouse, 0.5 mg/kg, Table S6, PO, mice, read-out: AUC (ng*h/mL) PO
# [9] = male, CD1, mouse, 0.5 mg/kg, Table S6, PO, mice, read-out: T1/2 (h) PO (converted)
# [10] = male, CD1, mouse, 0.5 mg/kg, Table S6, mice
# [11] = 150 mg/kg, gavage, five daily doses from day 5 after infection, day 7, female Swiss mice
# [12] = 300 mg/kg, gavage, five daily doses, day 7, female Swiss mice
# [13] = Table 6, PO 0.5 mg/kg, male CD1 mice
# [14] = mouse, 0.5 mg/kg, Table 6, male CD1 mice
# [15] = mouse, Table 6, IV 0.5 mg/kg, male CD1 mice
# [16] = mouse, Table 6, IV 0.5 mg/kg, male CD1 mice, read-out: AUC (ng*h/ml) IV
# [17] = mouse, Table 6, IV 0.5 mg/kg, male CD1 mice, read-out: T1/2 (h) IV (converted)
# [18] = mouse, Table 6, IV 0.5 mg/kg, male CD1 mice, read-out: V SS (L/kg) IV
# Sequence of rhodesain (Q95PM0 entry or part of it): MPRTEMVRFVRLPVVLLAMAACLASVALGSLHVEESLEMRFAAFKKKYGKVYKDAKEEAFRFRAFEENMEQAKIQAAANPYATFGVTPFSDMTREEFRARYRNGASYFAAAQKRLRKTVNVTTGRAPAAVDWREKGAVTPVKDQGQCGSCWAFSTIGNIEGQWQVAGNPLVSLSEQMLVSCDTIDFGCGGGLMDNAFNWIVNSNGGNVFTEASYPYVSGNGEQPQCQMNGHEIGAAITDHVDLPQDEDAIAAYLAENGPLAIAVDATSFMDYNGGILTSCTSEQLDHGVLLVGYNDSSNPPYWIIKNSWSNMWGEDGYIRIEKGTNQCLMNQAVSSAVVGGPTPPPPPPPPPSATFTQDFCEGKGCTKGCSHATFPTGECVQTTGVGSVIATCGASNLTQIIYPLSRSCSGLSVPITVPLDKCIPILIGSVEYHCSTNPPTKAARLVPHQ
SMILES,inhibition at 100 µM (rhodesain) [%],CLpu ([1]; Table S6) [mL/min/kg],"clearance [1, 3] [L/h/kg]","C0 [1, 3] [ng/mL]","AUC [1, 4] [ng·h/mL]","half-life [1, 5] [h]","Vd [1, 6] [L/kg]","Cmax [1, 7] [ng/mL]","Tmax [1, 7] [min]","AUC [1, 8] [ng·h/mL]","bioavailability [1, 10] [%]",IC50 at 72 h [2] [µM],"CLpu ([1]; Table 6, IV) [mL/min/kg]",further results
COc1ccc2cc(OCC(=O)NCCc3nc4ccccc4[nH]3)ccc2c1 [Compound 12],56,,,,,,,,,,,,,
NC(=O)Cn1c(CCNC(=O)COc2ccccc2)nc2ccccc21 [Compound 28],,66.3,0.73,1930,1420,0.52,0.43,275,30.6,499,35,> 100,,"half-life [1, 9]: 0.82 h; reduction in parasitemia levels at lower doses (T. cruzi (Y strain); 75 mg/kg and 37.5 mg/kg, Supplementary Figure S10): no reduction; % reduction of peak parasitemia (T. cruzi (Y strain); [11]): 36.9%; increase in the peak parasitemia compared with the vehicle (T. cruzi (Y strain); [12]): 13%; % reduction of peak parasitemia (T. cruzi (Y strain); [12]): -13%"
O=C(COc1ccc2ccc(O)cc2c1)NCCc1nc2ccccc2[nH]1 [Compound 11],67,8011,12.9,400,77,0.13,1.92,,,,,,,
O=C(COc1ccc2cc(O)ccc2c1)NCCc1nc2ccccc2[nH]1 [Compound 10],60,314,6.52,660,156,0.14,1.21,,,,0,> 100,,
CC(=O)Nc1cccc(OCC(=O)NCCc2nc3ccccc3[nH]2)c1 [Compound 3],41,242.5,2.31,12000,916,0.35,0.45,9,26.4,9.91,1,> 100,,
Nc1cccc(OCC(=O)NCCc2nc3ccccc3[nH]2)c1 [Compound 9],40,,,,,,,,,,,,,
"O=C(Cn1ccnc1[N+](=O)[O-])NCc1ccccc1 [BZ, benznidazole, reference compound]",,16.7,1,961,1020,0.8,1.1,404,24,1040,90,> 100,16.7,"AUC (ng*h/ml) PO [1, 13]: 1.040 ng·h/mL; T1/2 (h) PO [1, 13]: 1.5 h; half-life [1, 9]: 1.5 h; % reduction of peak parasitemia (T. cruzi (Y strain); [11]): 100%"
Cc1ccccc1OCC(=O)NCCc1nc2ccccc2[nH]1 [Compound 17],,,,,,,,,,,,> 100,1738,"bioavailability [1, 14]: 0%; C0 [1, 15]: 153 ng/mL; AUC [1, 16]: 83 ng·h/mL; half-life [1, 17]: 0.5 h; Vd [1, 18]: 4.4 L/kg; clearance [1, 15]: 6.3 L/h/kg"
O=C(COc1ccccc1[N+](=O)[O-])NCCc1nc2ccccc2[nH]1 [Compound 32],,,,,,,,,,,,> 100,2623,"bioavailability [1, 14]: 1.9%; C0 [1, 15]: 220 ng/mL; AUC [1, 16]: 53 ng·h/mL; half-life [1, 17]: 0.2 h; Vd [1, 18]: 2.5 L/kg; Tmax ([1]; mouse, Table 6, PO 0.5 mg/kg, male CD1 mice): 18 min; AUC ([1]; mouse, Table 6, PO 0.5 mg/kg, male CD1 mice, read-out: AUC (ng*h/ml) PO): 1 ng·h/mL; clearance [1, 15]: 5.9 L/h/kg"
